Source: PubChem BioAssay AID1963856 (Molecular Pharmacology Branch, DTP, NCI, 2024)
pIC50: −log10 of the molar value. Values joined by “and” are separate entries in the source; they are usually repeats but may differ in a detail not shown here. Equal values may be shown once. Active and inactive are the calls of the source. Rule for the calls: active = viability on the fitted dose curve at most 10% of control; inactive = the rest.

System: LG0567-F671-PDC KRAS tumor spheroid viability
Test: Anticancer human tumor LG0567-F671-PDC patient-derived lung adenocarcinoma cell line growth inhibition [KRAS2]
Settings: spheroids with HUVEC and MSC; for viability, T/C: stronger effect = lower value
Outline: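 KRAS-mutant tumor cells were grown as spheroids with HUVEC endothelial cells and human MSCs as stroma. Targeted agents were tested alone and with KRAS pathway inhibitors. Doses started at or near clinical Cmax, or 10 microM, descending half-log.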

[1] = curve of first compound, second compound 0.1 µM
[2] = curve of first compound, second compound 0.316 µM
[3] = curve of first compound, second compound 1 µM
[4] = curve of first compound, second compound 3.16 µM
[5] = second compound 0.1 µM, first compound 0.000316 µM
[6] = second compound 0.1 µM, first compound 0.001 µM
[7] = second compound 0.1 µM, first compound 0.00316 µM
[8] = second compound 0.1 µM, first compound 0.01 µM
[9] = second compound 0.1 µM, first compound 0.0316 µM
[10] = second compound 0.1 µM, first compound 0.1 µM
[11] = second compound 0.316 µM, first compound 0.000316 µM
[12] = second compound 0.316 µM, first compound 0.001 µM
[13] = second compound 0.316 µM, first compound 0.00316 µM
[14] = second compound 0.316 µM, first compound 0.01 µM
[15] = second compound 0.316 µM, first compound 0.0316 µM
[16] = second compound 0.316 µM, first compound 0.1 µM
[17] = second compound 1 µM, first compound 0.000316 µM
[18] = second compound 1 µM, first compound 0.001 µM
[19] = second compound 1 µM, first compound 0.00316 µM
[20] = second compound 1 µM, first compound 0.01 µM
[21] = second compound 1 µM, first compound 0.0316 µM
[22] = second compound 1 µM, first compound 0.1 µM
[23] = second compound 3.16 µM, first compound 0.000316 µM
[24] = second compound 3.16 µM, first compound 0.001 µM
[25] = second compound 3.16 µM, first compound 0.00316 µM
[26] = second compound 3.16 µM, first compound 0.01 µM
[27] = second compound 3.16 µM, first compound 0.0316 µM
[28] = second compound 3.16 µM, first compound 0.1 µM
[29] = curve of first compound, second compound 0.0316 µM
[30] = second compound 0.0316 µM, first compound 0.00316 µM
[31] = second compound 0.0316 µM, first compound 0.01 µM
[32] = second compound 0.0316 µM, first compound 0.0316 µM
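Throughout, for pIC50: drug exposure lasted seven days after spheroids formed for three days.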
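Throughout, for viability, T/C: drug exposure lasted seven days after spheroids formed for three days; 100% = DMSO vehicle control viability.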

## Cn1ncnc1[C@H]1c2n[nH]c(=O)c3cc(F)cc(c23)N[C@@H]1c1ccc(F)cc1 + CC1OCC2(CCN(c3cnc(Sc4ccnc(N)c4Cl)c(N)n3)CC2)C1N
[1]
  pIC50: > 9.50
[2]
  pIC50: > 9.50
[3]
  pIC50: > 9.50
[4]
  pIC50: > 9.50
Curve of first compound, second compound 10 µM
  pIC50: > 9.50
[5]
  viability, T/C: 48.9%
[6]
  viability, T/C: 53.1%
[7]
  viability, T/C: 52.4%
[8]
  viability, T/C: 56.4%
[9]
  viability, T/C: 57.3%
[10]
  viability, T/C: 54.9%
[11]
  viability, T/C: 47%
[12]
  viability, T/C: 34.5%
[13]
  viability, T/C: 29.1%
[14]
  viability, T/C: 36.4%
[15]
  viability, T/C: 32.8%
[16]
  viability, T/C: 35.2%
[17]
  viability, T/C: 29.4%
[18]
  viability, T/C: 25.9%
[19]
  viability, T/C: 21.9%
[20]
  viability, T/C: 18.9%
[21]
  viability, T/C: 22.5%
[22]
  viability, T/C: 23.3%
[23]
  viability, T/C: 24.4%
[24]
  viability, T/C: 19.1%
[25]
  viability, T/C: 19.1%
[26]
  viability, T/C: 15.3%
[27]
  viability, T/C: 12%
[28]
  viability, T/C: 13.8%
Second compound 10 µM, first compound 0.000316 µM
  viability, T/C: 11.2%
Second compound 10 µM, first compound 0.001 µM
  viability, T/C: 12.2%
Second compound 10 µM, first compound 0.00316 µM
  viability, T/C: 15.7%
Second compound 10 µM, first compound 0.01 µM
  viability, T/C: 9.32%
Second compound 10 µM, first compound 0.0316 µM
  viability, T/C: 8.87%
Second compound 10 µM, first compound 0.1 µM
  viability, T/C: 7.89%

## CC(=O)Nc1cccc(-n2c(=O)n(C3CC3)c(=O)c3c(Nc4ccc(I)cc4F)n(C)c(=O)c(C)c32)c1 + C=CC(=O)N1CCN(c2nc(OCC3CCCN3C)nc3c2CCN(c2cccc4cccc(C)c24)C3)CC1CC#N
[29]
  pIC50: > 10.00
[1]
  pIC50: > 10.00
[2]
  pIC50: > 10.00
[3]
  pIC50: > 10.00
[4]
  pIC50: > 10.00
Second compound 0.0316 µM, first compound 0.0001 µM
  viability, T/C: 36.6%
Second compound 0.0316 µM, first compound 0.000316 µM
  viability, T/C: 35.6%
Second compound 0.0316 µM, first compound 0.001 µM
  viability, T/C: 34.5%
[30]
  viability, T/C: 42%
[31]
  viability, T/C: 24.2%
[32]
  viability, T/C: 7.65%
Second compound 0.1 µM, first compound 0.0001 µM
  viability, T/C: 23.8%
[5]
  viability, T/C: 32.3%
[6]
  viability, T/C: 56.4%
[7]
  viability, T/C: 24.6%
[8]
  viability, T/C: 12.1%
[9]
  viability, T/C: 4.09%
Second compound 0.316 µM, first compound 0.0001 µM
  viability, T/C: 30%
[11]
  viability, T/C: 33.2%
[12]
  viability, T/C: 39.7%
[13]
  viability, T/C: 22.1%
[14]
  viability, T/C: 19.3%
[15]
  viability, T/C: 5.95%
Second compound 1 µM, first compound 0.0001 µM
  viability, T/C: 38.2%
[17]
  viability, T/C: 37.5%
[18]
  viability, T/C: 23.7%
[19]
  viability, T/C: 31.7%
[20]
  viability, T/C: 15.7%
[21]
  viability, T/C: 6.26%
Second compound 3.16 µM, first compound 0.0001 µM
  viability, T/C: 30.8%
[23]
  viability, T/C: 22.8%
[24]
  viability, T/C: 12.8%
[25]
  viability, T/C: 12%
[26]
  viability, T/C: 2.28%
[27]
  viability, T/C: 4.58%

## CC(C)NCC(C(=O)N1CCN(c2ncnc3c2C(C)CC3O)CC1)c1ccc(Cl)cc1 (configuration not stated)
Compound 0.0316 µM
  viability, T/C: 101% [middle of 5 runs]
Compound 0.1 µM
  viability, T/C: 83.4% [middle of 5 runs]
Compound 0.316 µM
  viability, T/C: 65.9% [middle of 5 runs]
Compound 1 µM
  viability, T/C: 71.3% [middle of 5 runs]
Compound 10 µM
  viability, T/C: 72.5% [middle of 4 runs]
  outcome: active
Curve of compound
  pIC50: < 5.00 and 5.93

## CCN1CCN(Cc2ccc(Nc3ncc(F)c(-c4cc(F)c5nc(C)n(C(C)C)c5c4)n3)nc2)CC1 + C=CC(=O)N1CCN(c2nc(OCC3CCCN3C)nc3c2CCN(c2cccc4cccc(C)c24)C3)CC1CC#N
[29]
  pIC50: > 8.50
[1]
  pIC50: > 8.50
[2]
  pIC50: > 8.50
[3]
  pIC50: > 8.50
[4]
  pIC50: > 8.50
[30]
  viability, T/C: 36.1%
[31]
  viability, T/C: 32.4%
[32]
  viability, T/C: 22.2%
Second compound 0.0316 µM, first compound 0.1 µM
  viability, T/C: 26.6%
Second compound 0.0316 µM, first compound 0.316 µM
  viability, T/C: 27.6%
Second compound 0.0316 µM, first compound 1 µM
  viability, T/C: 31.4%
[7]
  viability, T/C: 32.8%
[8]
  viability, T/C: 24.7%
[9]
  viability, T/C: 18.6%
[10]
  viability, T/C: 20%
Second compound 0.1 µM, first compound 0.316 µM
  viability, T/C: 22.1%
Second compound 0.1 µM, first compound 1 µM
  viability, T/C: 25.3%
[13]
  viability, T/C: 23.9%
[14]
  viability, T/C: 25.3%
[15]
  viability, T/C: 16.7%
[16]
  viability, T/C: 22.5%
Second compound 0.316 µM, first compound 0.316 µM
  viability, T/C: 23.7%
Second compound 0.316 µM, first compound 1 µM
  viability, T/C: 27.7%
[19]
  viability, T/C: 27.7%
[20]
  viability, T/C: 20.6%
[21]
  viability, T/C: 22.1%
[22]
  viability, T/C: 21.8%
Second compound 1 µM, first compound 0.316 µM
  viability, T/C: 26%
Second compound 1 µM, first compound 1 µM
  viability, T/C: 33.5%
[25]
  viability, T/C: 28%
[26]
  viability, T/C: 30.7%
[27]
  viability, T/C: 25.6%
[28]
  viability, T/C: 29%
Second compound 3.16 µM, first compound 0.316 µM
  viability, T/C: 31.4%
Second compound 3.16 µM, first compound 1 µM
  viability, T/C: 29.4%
